From publication PMC11211886 (Frontiers in Pharmacology, 2024)

Columns and labels:
MATE2-K = MATE2-K (Homo sapiens, UniProt Q86VL8); test: MATE2-K inhibition, tetraethylammonium uptake in transfected HEK293 cells; settings: for Percentage transported / Uptake rate: MATE2-K
Experimental: The pre-incubation solutions were removed, and incubation solutions containing the inhibitors and probe substrates (or transport buffer containing an equal volume of vehicle control and probe substrates) were added and incubated at 37°C for 2 min (5 min for OATP1B3). The probe substrate for OAT1 was 4-aminohippuric acid (10 μM), for OAT3 was estrone 3-sulfate (10 μM), for OCT2 was metformin (100 μM), for OATP1B1 was β-estradiol 17-(β-D-glucuronide) (5 μM), for OATP1B3 was β-estradiol 17-(β-D-glucuronide) (10 μM), and for MATE1 and MATE2-K was tetraethylammonium (10 μM). After incubation, cells were washed three times with ice-cold transport buffer (25 mM HEPES, pH 7.4, pH 8.0 for overexpressing MATE1 and MATE2-K HEK293 cells) and lysed in distilled water. The concentrations of probe substrates were determined by LC-MS/MS, and a BCA Kit (Solarbio ®Life Sciences, Beijing, China) was used to determine the protein content in the cell lysate.
where C is the concentration of the drug in the cell lysate (nM), P is the protein concentration of the cell lysate (mg/mL), and T is the incubation time (minute). Uptake ratetest compound is the uptake rate of the substrate in the presence of the test compound. Uptake ratevehicle control is the uptake rate of the substrate in the presence of the vehicle control. Uptake ratepassive is the uptake rate of the substrate in the presence of the positive inhibitor at the top test concentration.

[1] = Cytotoxicity on human hepatocytes in induction assay; format: cell-based; settings: 20 μM, CYP2C induction evaluation (data not shown)
Experimental: […] […] […] Enzyme activity for each CYP isoform was reported as a fold change over vehicle control and the percent of positive control (detailed calculation in Supplementary 1.1). Hepatocytes were harvested with a lysis buffer from RNeasy 96 Kit (Qiagen Inc., Germantown, MD, USA) to isolate RNA, which was analyzed by real-time quantitative polymerase chain reaction (RT-PCR). […] Emax (the maximal observed induction) and EC50 (the concentration that supports half-maximal induction) were estimated by non-linear regression of fold increase in CYP mRNA expression versus concentration plots.

BCRP = target: T1, BCRP (Homo sapiens, UniProt Q9UNQ0); test: in vitro; settings: human
T1 sequence (Q9UNQ0 1-655): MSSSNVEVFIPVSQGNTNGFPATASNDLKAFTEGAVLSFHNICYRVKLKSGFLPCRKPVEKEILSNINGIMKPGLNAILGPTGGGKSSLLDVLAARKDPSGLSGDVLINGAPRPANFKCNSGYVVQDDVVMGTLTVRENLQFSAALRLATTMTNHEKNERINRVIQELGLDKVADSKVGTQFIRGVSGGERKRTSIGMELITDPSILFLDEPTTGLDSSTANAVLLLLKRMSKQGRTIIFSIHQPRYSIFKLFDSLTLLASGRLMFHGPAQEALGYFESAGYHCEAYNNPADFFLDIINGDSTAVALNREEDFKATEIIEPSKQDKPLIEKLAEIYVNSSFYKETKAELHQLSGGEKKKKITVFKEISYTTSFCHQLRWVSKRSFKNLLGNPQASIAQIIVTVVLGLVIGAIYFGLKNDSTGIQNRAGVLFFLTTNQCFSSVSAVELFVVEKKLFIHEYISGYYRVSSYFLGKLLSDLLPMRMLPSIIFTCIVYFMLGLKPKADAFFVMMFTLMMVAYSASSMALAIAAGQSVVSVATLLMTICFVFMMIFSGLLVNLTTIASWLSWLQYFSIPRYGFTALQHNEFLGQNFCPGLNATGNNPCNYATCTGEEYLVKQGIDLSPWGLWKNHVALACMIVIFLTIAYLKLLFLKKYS
Excerpt: (§1) The experimental conditions were similar to those of the permeability study.

P-gp = P-gp (Homo sapiens, UniProt P08183); test: P-gp inhibition, digoxin transport across Caco-2 monolayers
Sequence of P-gp (P08183 whole entry): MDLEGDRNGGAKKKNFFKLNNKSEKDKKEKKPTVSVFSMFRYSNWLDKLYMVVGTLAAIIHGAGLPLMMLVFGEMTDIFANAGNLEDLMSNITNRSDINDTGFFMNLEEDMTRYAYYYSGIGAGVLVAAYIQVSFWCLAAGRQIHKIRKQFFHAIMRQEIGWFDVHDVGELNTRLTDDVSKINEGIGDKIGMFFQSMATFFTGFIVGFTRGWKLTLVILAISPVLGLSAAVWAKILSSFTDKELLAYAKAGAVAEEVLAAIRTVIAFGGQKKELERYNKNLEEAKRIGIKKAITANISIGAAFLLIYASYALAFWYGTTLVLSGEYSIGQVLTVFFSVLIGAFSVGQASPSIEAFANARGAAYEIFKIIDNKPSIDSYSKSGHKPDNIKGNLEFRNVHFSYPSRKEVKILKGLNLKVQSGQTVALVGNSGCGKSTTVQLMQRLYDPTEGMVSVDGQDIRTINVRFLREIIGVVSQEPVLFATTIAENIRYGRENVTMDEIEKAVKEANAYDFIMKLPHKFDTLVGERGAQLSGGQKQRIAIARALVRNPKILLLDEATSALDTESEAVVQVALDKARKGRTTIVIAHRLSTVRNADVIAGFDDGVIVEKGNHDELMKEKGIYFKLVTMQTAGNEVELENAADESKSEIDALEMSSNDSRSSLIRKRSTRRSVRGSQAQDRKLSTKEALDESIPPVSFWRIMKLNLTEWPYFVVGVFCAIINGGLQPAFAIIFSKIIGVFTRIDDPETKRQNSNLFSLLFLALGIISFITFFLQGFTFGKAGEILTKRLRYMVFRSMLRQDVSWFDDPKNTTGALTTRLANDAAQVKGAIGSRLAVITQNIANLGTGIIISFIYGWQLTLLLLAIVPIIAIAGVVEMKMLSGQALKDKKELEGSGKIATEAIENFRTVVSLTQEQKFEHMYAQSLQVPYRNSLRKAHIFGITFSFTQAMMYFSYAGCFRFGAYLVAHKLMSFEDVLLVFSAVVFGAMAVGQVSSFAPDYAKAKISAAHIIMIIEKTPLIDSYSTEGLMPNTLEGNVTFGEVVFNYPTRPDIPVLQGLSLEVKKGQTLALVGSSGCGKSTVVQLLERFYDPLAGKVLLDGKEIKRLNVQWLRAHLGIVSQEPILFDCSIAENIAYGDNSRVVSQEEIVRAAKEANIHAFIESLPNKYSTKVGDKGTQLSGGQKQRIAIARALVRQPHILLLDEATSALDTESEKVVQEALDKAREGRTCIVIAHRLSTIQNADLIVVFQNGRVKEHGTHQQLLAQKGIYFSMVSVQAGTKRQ
Excerpt: as §1

[2] = Whole blood-to-plasma partition, rat blood; format: in vitro ADME
Experimental: The whole blood and plasma samples were incubated at 37°C for up to 1 h. Serial samples (150 µL) were collected at different time points (0, 10, and 60 min) and transferred into new tubes. The whole blood samples were then centrifuged at 1700 g for 15 min to harvest plasma.

Sequence of MATE2-K (Q86VL8 1-566 isoform Q86VL8-3): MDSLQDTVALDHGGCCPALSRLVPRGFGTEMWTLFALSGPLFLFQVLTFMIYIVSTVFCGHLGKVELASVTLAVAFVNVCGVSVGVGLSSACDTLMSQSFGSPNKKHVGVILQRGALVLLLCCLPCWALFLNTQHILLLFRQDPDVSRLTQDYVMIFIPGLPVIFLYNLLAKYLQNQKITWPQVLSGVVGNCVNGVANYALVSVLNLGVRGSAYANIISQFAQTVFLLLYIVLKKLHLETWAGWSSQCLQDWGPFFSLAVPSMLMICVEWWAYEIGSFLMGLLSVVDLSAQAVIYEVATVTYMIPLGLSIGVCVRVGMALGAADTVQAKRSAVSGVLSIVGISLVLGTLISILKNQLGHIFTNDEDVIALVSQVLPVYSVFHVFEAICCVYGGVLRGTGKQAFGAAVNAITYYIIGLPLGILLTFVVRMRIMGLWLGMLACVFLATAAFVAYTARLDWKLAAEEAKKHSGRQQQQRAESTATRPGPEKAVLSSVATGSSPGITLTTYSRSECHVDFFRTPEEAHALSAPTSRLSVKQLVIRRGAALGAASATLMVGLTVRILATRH

C[C@H](Nc1ncnc(N)c1C#N)c1cc2ncc(Cl)n2nc1-c1ccccc1 [Amdizalisib]
IC50 (MATE2-K): 38.2 µM | calculated R value (MATE2-K) (MATE2-K): < 1.1 | Percentage transported (MATE2-K; compound 0.3 μM): 87.1% | Uptake rate (MATE2-K; compound 0.3 μM): 125±3.49 pmol/mg protein/min | Percentage transported (MATE2-K; compound 1 μM): 89.9% | Uptake rate (MATE2-K; compound 1 μM): 129±7.96 pmol/mg protein/min | Percentage transported (MATE2-K; compound 3 μM): 89.0% | Uptake rate (MATE2-K; compound 3 μM): 127±5.50 pmol/mg protein/min | Percentage transported (MATE2-K; compound 10 μM): 89.6% | Uptake rate (MATE2-K; compound 10 μM): 128±4.89 pmol/mg protein/min | Percentage transported (MATE2-K; compound 30 μM): 49.3% | Uptake rate (MATE2-K; compound 30 μM): 73.9±6.49 pmol/mg protein/min | Percentage transported (MATE2-K; compound 100 μM): 29.6% | Uptake rate (MATE2-K; compound 100 μM): 47.4±3.61 pmol/mg protein/min | inhibition at 2 min, 0.3 µM (MATE2-K; human, pH 8): 12.9% | inhibition at 2 min, 1 µM (MATE2-K; human, pH 8): 10.1% | inhibition at 2 min, 3 µM (MATE2-K; human, pH 8): 11% | inhibition at 2 min, 10 µM (MATE2-K; human, pH 8): 10.4% | inhibition at 2 min, 30 µM (MATE2-K; human, pH 8): 50.7% | inhibition at 2 min, 100 µM (MATE2-K; human, pH 8): 70.4% | cytotoxic effect on cell viability [1]: exhibited cytotoxicity against human hepatocytes in one donor | inhibition at 60 min, 0.1 µM (BCRP): 28.5% | inhibition at 60 min, 0.5 µM (BCRP): 34.2% | inhibition at 60 min, 2 µM (BCRP): 21.3% | inhibition at 60 min, 5 µM (BCRP): 24.2% | inhibition at 60 min, 10 µM (BCRP): 43.6% | inhibition at 60 min, 40 µM (BCRP): 52.9% | inhibition at 60 min, 60 µM (BCRP): 66.4% | inhibition at 60 min, 80 µM (BCRP): 52% | IC50 (P-gp): 22.9 µM | inhibition at 60 min, 0.5 µM (P-gp; human): -3.22% | inhibition at 60 min, 2 µM (P-gp; human): 1.75% | inhibition at 60 min, 5 µM (P-gp; human): 17% | inhibition at 60 min, 20 µM (P-gp; human): 46.5% | inhibition at 60 min, 40 µM (P-gp; human): 58.4% | inhibition at 60 min, 60 µM (P-gp; human): 75.9% | inhibition at 60 min, 80 µM (P-gp; human): 83.6% | RB ([2]; rat blood, 1 μM, 0 min): 1.08 | RB ([2]; rat blood, 1 μM, 60 min): 1.03 | fuB ([2]; rat blood, 10 min): 8.41% | fuB ([2]; rat, 0 min, 1 µM): 9.11% | fup ([2]; rat, 1 µM): 0.0980 | RB ([2]; rat, 10 min, 1 µM): 1.16 | fuB ([2]; rat, 60 min, 1 µM): 9.49%
